# Results from US11078251B2, “T cell receptors (TCR) and uses thereof for the diagnosis and treatment of diabetes” (INSERM (INSTITUT NATIONAL DE LA SANTÉ ET DE LA RECHERCHE …, priority 2015, dated 2021).
# No end group written: not given here.
# How the values were obtained:
# [1] = molecular target: recombinant HLA-A2 molecules (Homo sapiens, UniProt P04439, /I119V/I121R/I166T/I218V/N151K/N90K/P208A/P217A/Q86G/Q94H/R138H/R169H); assay: Affinity and stability measurements of recombinant HLA-A2 molecules complexed with peptide; format: binding
# [2] = system: lytic activity of D222D clone 2 against peptide-pulsed LCL target cells; assay: Cytotoxic mechanism: ZnT8-specific lysis of LCL targets by D222D clone 2 in the presence of inhibitors; format: cell-based, human; settings: 4 h co-culture; concanamycin A 100 nM, brefeldin A 5 μg/ml, anti-FasL mAb 5 μg/ml
# Protocol: FIG. 6. […]; left to right). Live FarRed^+ target cells were counted at the end of the culture and normalized to a fixed amount of beads added to each well. Percent lysis is noted for each dot plot, calculated as 100×(live targets cultured alone)−(live targets in the presence of T cells)/(live targets cultured alone). B. Lysis of LCL targets pulsed with the indicated peptides and cultured with D222D clones at different E/T ratios. Percent lysis was calculated as above and depicted as mean±SEM of two independent experiments with clone 2 and 3, with data depicted in panel (A) used for clone 3. Similar profiles were obtained for clone 1 (not shown). C. ZnT8-specific lysis of peptide-pulsed LCL target cells co-cultured for 4 h with D222D clone 2 without inhibitors (−) or in the presence of concanamycin A (CMA, 100 nM), brefeldin A (BFA, 5 μg/ml), anti-FasL mAb (aFasL, clone NOK-1; 5 μg/ml) or IgG1 isotype control. *p<0.05 by Wilcoxon signed-rank test. Results are mean±SEM of triplicate measurements from one representative experiment out two performed.
# LCL pulsed with 10 μM of the indicated peptide, K562-A2/ZnT8 or K562/A2 target cells were labeled with CellTrace FarRed (Life Technologies) and dispensed in 96-well flat-bottom plates at 10^5/well. Different numbers of CFSE-labeled T cells were added and co-cultured for 6-24 h, as indicated. […]
# [3] = molecular target: recombinant HLA-A2 molecules (Homo sapiens, UniProt P04439, D140Y/D185E/D98H/E176V/E277Q/G131W/G231S/I119V/I121R/I166T/I218V/N151K/N90K/P208A/P217A/Q86G/Q94H/R138H/R169H); assay: Affinity and stability measurements of recombinant HLA-A2 molecules complexed with peptide; format: binding; settings: recombinant HLA-A2 complexed with peptide; data not shown
Compound,inhibition of lytic activity [2],further results
VAANIVLTV [ZnT8186-194],,Kd [1]: 15 nM
C/C=C/[C@H]1O[C@@](O)([C@@H](C)[C@H](O)[C@H](C)[C@H]2OC(=O)/C(OC)=C/C(C)=C/[C@@H](C)[C@@H](O)[C@@H](CC)[C@@H](O)[C@H](C)C/C(C)=C/C=C/[C@@H]2OC)C[C@@H](O[C@H]2C[C@@H](O)[C@H](OC(N)=O)[C@@H](C)O2)[C@@H]1C [concanamycin A],completely inhibited,
AVAANIVLTV [ZnT8185-194],,Kd [3]: 207 nM
C[C@H]1CCC/C=C/[C@@H]2C[C@H](O)C[C@H]2[C@H](O)/C=C/C(=O)O1 [brefeldin A],not,
